Laboratory results from patent publication US11028361B2, “Compositions and methods for stabilizing susceptible compounds” (LIFE TECHNOLOGIES CORPORATION, priority 2011, dated 2021).

How the values were obtained:
[1] = system: DG44-EPO, a CHO cell line expressing recombinant erythropoietin; experiment: Cell culture potency of ethanolamine derivatives (viable cell density); type: cell-based, Chinese hamster; details: for Multiple of the ethanolamine molar equivalent yielding similar growth potential to ethanolamine: FIGS. 1A and 1B, titered up to 64× of a molar equivalent, viable cell density followed for 8 days
Text: We tested a range of ethanolamine derivatives for cell culture potency, including phosphorylethanolamine (PE), triethanolamine (TE), diethanolamine (DE), monomethylethanolamine (MME), dimethylethanolamine (DME), and N-acetylethanolaine (NAE). […] The cell line used was DG44-EPO, a CHO cell line expressing recombinant erythropoietin, that requires ethanolamine for good growth. Cells were inoculated at 3×10^5/ml and cultured bi-weekly for 3 subpassages in each condition prior to starting the assay. The assay was also inoculated at 3×10^5/ml but followed for 8 days for viable cell density from a ViCell cell counter.
Next we titered the compounds up to 64× of a molar equivalent. Both phoshorylethanolamine and NAE at about 16× the molar equivalent yielded similar growth potential to ethanolamine. In another set of experiments, NAE at about 16× the ethanolamine molar equivalent was again shown to be able to supplement an ethanolamine-sensitive line as well as ethanolamine. These latter experiments were performed in 24 well culture trays. Cells were inoculated at 1×10^5/ml and samples harvested at day 12. Because the nitrogen atom in NAE is contained within an amide structure, it is expected that NAE should be stable and can be used in place of ethanolamine in cell culture media.
The negative control is without ethanolamine. The line way above the rest should be disregarded—it is a CD CHO catalogue control, not relevant to this assay.

[2] = Microbeads protection studies during real-time ambient storage in AGT media (FIG. 8); type: physicochemical; details: FIG. 8, AGT media, ambient conditions
Text: FIG. 8: Microbeads protection studies during real-time ambient storage.

HeLa cells = experiment: HeLa cell growth with insulin-dendrimer-RGD conjugate, microencapsulated or not (FIG. 7B); type: cell-based; details: for Potency and growth characteristics of HeLa cells: FIG. 7B
Text: FIG. 7B: Impact of microencapsulation of the insulin-dendrimer-RGD covalent conjugate on the growth of HeLa cell Growth.

[3] = Stability of insulin / insulin-dendrimer with and without alginate microencapsulation (FIG. 7A, FIG. 10); type: physicochemical
Experimental: Further examples for microencapsulating labile compounds other than ethanolamine are shown below. A sequestering agent like alginate was used to encapsulate or embed a dendrimer-insulin complex. The labile compound insulin was polymerized with PAMAM dendrimer, and further microencapsulated in alginate microbeads with or without PLL. Briefly, for dendrimer generation, PAMAM 2.5 (carboxylate surface groups) was used. Insulin was conjugated onto the dendrimer to which RGD sequences were also added to target the cell surface. The ratios of components in this complex was dendrimer:RGD:insulin=1:7:12.
Concentration of conjugate and alginate was adjusted as on attachment. Next conjugate was added to the alginate and mixed several minutes to distribute evenly. It was dripped through a 26 gauge needle using a 1 ml syringe into a calcium chloride bath (13.32 g/L). It was left to incubate for 30 minutes to solidify microcapsules. Then rinsed 1× in a solution also containing the dendrimer conjugate to prevent loss of component from the microcapsules. Then dried overnight in a vacuum over dessicant. The loaded microbeads were then added to AGT dry-format medium or used by adding directly into a liquid medium.
The insulin concentration of the dendrimer-insulin-RGD conjugate was estimated to be ˜2 mg/ml (pg 165/168). It needed to be diluted in half to get to ˜1 mg/ml (1000 μg/ml). […]

## CC(=O)NCCO [NAE, N-acetylethanolamine]
[1]; FIG. 2A (Example 2)
  Higher concentration needed to perform in a cell growth assay comparable to ethanolamine: 8-12 fold
[1]; FIG. 2A cell growth titration assay (figure legend)
  Multiple of the ethanolamine molar equivalent able to supplement an ethanolamine-sensitive line comparable to ethanolamine: 16-20 ×
[1]
  Multiple of the ethanolamine molar equivalent yielding similar growth potential to ethanolamine: about 16 ×
[1]; another set of experiments, 24 well culture trays, harvested at day 12
  Multiple of the ethanolamine molar equivalent able to supplement an ethanolamine-sensitive line as well as ethanolamine: about 16 ×

## NCCO [Unencapsulated ethanolamine, ethanolamine]
[2]
  Ethanolamine potency (activity) during ambient storage: drops quickly
[2]; listed as unprotected ethanolamine
  Ethanolamine potency (activity) during ambient storage: dropped quickly

## NCCOP(=O)(O)O [phoshorylethanolamine, phosphorylethanolamine]
[1]
  Multiple of the ethanolamine molar equivalent yielding similar growth potential to ethanolamine: about 16 ×

## alginate
HeLa cells
  Inhibition of / interference with viability or growth of HeLa cells: did not interfere with viability or growth of Hela cells

## insulin [insulin alone]
HeLa cells
  Potency and growth characteristics of HeLa cells: equivalent potency and growth characteristics of HeLa cells

## unencapsulated dendrimer (with insulin): insulin conjugated onto PAMAM 2.5 dendrimer with RGD sequences, dendrimer:RGD:insulin=1:7:12, not encapsulated
[3]
  Potency of insulin at 4° C.: comparable to that of insulin alone
HeLa cells
  Potency and growth characteristics of HeLa cells: equivalent potency and growth characteristics of HeLa cells
